Measured values as given in patent US7199099B2, “Methanobactin: a copper binding compound having antibiotic and antioxidant activity isolated from methanotrophic bacteria” (priority 2002, dated 2007).
≈ marks a conversion by molar mass, not a printed value.

Key:
gram-negative bacteria = assay: Activity against gram-negative bacteria; assay type: cell-based
Escherichia coli, X161 = assay: Antimicrobial activity, Escherichia coli X161; assay type: cell-based; details: purified methanobactin
Protocol: (§1) Enterococcus fecalus was cultured aerobically on Brain Heart Infusion broth at 37° C., Staphyloccus aureus, Escherichia coli, X161, and Bacillus thuringiensis were cultured aerobically on Lauria-Burtani broth at 37° C., and Listeria monocytogenes was grown on Trypticase soy broth containing 0.6% yeast extract at 35° C. Minimum inhibitory concentrations were determined as previously described (A. F. Mendoca and S. J. Knabel. 1994. A novel strictly anaerobic recovery and enrichment system incorporating lithium for detection of heat-injured Listeria monocytogenes in pasteurized milk containing background microflora. Appl. Environ. Microbiol. 60: 4001–4008).

Micrococcus luteus X186 = assay type: cell-based
[1] = assay type: physicochemical
Description: Solution properties of the methanobactin varied with metal binding and pH.

Candida albicans, X657 = assay: Antimicrobial activity, Candida albicans X657; assay type: cell-based; details: purified methanobactin
gram-positive bacteria = assay: Bacteriocidal activity against gram-positive bacteria; assay type: cell-based, Staphylococci, Streptococci and Enterococci; details: including vancomycin resistant and methicillin-resistant strains
Protocol: as §1

washed cell suspensions = assay: Oxygen uptake activity of washed cell suspensions; assay type: cell-based
Protocol: Oxygen uptake activity of washed cell suspensions was determined with a Clark oxygen electrode maintained at a constant water temperature of 37° C. Cell samples containing methanobactin were preincubated 5 minutes at 37° C. before the addition of substrate.

CSCC[C@H](NC(=O)[C@@H]1CSSC[C@H](NC(=O)[C@H](CO)NC(=O)CN/C(S)=C2/N=C(C(=O)CC(C)C)OC2=O)C(=O)N[C@@H](Cc2ccc(O)cc2)C(=O)N2CCC[C@H]2C2=N/C(=C(\S)N[C@@H](CO)C(=O)N1)C(=O)O2)C(=O)O [methanobactin, N-2-isopropylester-(4-thionyl-5-hydroxy-imidazole)-Gly^1-Ser^2-Cys^3-Tyr^4-pyrrolidine-(4-thionyl-5-hydroxy-imidazole)-Ser^5-Cys^6-Met^7]
effectiveness against gram-negative bacteria (gram-negative bacteria; methanobactin by itself): not been found to be effective
activity against gram negative bacteria in combination with a metal chelator (gram-negative bacteria; with EDTA, at least about 1:1 methanobactin to EDTA): bacteriocidal
Antimicrobial Activity (Escherichia coli, X161): 0
MIC (Micrococcus luteus X186): 24 µg/mL (≈ 20.8 µM)
solubility [1]: very soluble
Antimicrobial Activity (Candida albicans, X657): 0
bacteriocidal activity against gram-positive bacteria (gram-positive bacteria): bacteriocidal activity
effect on respiration (washed cell suspensions; higher concentrations): respiratory inhibitor
effect on respiration (washed cell suspensions; low concentrations): respiratory uncoupler
